In patent US7053052B2, “Therapies involving mutated heat shock transcription factor” (priority 1997, dated 2006):

Tested on: HepG2 cells
Assay: Mortality from exposure to cyclophosphamide (LDH release, mortality)
Conditions: 20 mM, 24 hour exposure

O=P1(N(CCCl)CCCl)NCCCO1 (stereo not shown) [cyclophosphamide, reference compound]
mortality caused by cyclophosphamide: 38%
